Measurements as given in patent US7745574B2, “Compounds that regulate apoptosis” (The Burnham Institute, priority 2005, dated 2010).
[ ]: non-standard residue; d: D form. Ahx = NCCCCCC(=O)O

Legend:
H460 lung cancer cells [1] = test: Apoptosis in H460 lung cancer cells; assay type: cell-based
Procedure: Bcl-2 siRNAs and antisense oligonucleotides-The target siRNA SMARTpools for Bcl-2 and Bak and the siRNA oligonucleotide for Nur77 (5'-[…] NO: 67) were purchased from Dharmacon Research Inc. Target or control siRNA were transfected at a final concentration of 200 nM into cells at 40% confluency using Oligofectamine reagent (Invitrogen) according to the manufacturer's recommendations. After 48 h, cells were analyzed. Bcl-2 antisense oligonucleotide targeting Bcl-2 and negative control oligonucleotides were obtained from Calbiochem. […] The percentages of apoptotic cells were determined by counting 300 GFP-positive cells, scoring cells having nuclear fragmentation and/or chromatin condensation. Cell culture. […] HEK293T embryonic kidney cells were grown in DME medium supplemented with 10% FBS. Jurkat and Jurkat cells stably expressing Bcl-2 were kindly provided by Dr. John Reed, and they were maintained in RPMI1640 medium.

Bcl-2 [2] = target: T1, Bcl-2 (Homo sapiens, UniProt P10415); test: Immunoprecipitation of endogenous Bcl-2 by anti-Bcl-2/BH3 antibody in treated cells; assay type: cell-based; parameters: precipitated endogenous Bcl-2 in cells treated with L-NuBCP-9-r8 or D-NuBCP-9-r8; endogenous in cells
Target sequence in this assay (P10415 whole entry, species assumed): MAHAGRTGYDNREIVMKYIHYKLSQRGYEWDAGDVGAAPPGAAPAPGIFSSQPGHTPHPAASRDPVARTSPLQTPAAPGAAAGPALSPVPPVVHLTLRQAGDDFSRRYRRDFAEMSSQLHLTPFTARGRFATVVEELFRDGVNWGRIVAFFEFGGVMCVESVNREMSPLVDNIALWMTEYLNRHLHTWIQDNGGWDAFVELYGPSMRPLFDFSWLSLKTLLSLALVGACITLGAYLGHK

[3] = tested on: MDA-MB435 breast carcinoma cells; test: MDA-MB435 tumors in SCID mice; assay type: in vivo
Procedure: Animal studies. Female SCID mice (6-week-old) (Tacomic) were injected with 10^6 MDA-MB435 breast carcinoma cells. Tumors were palpable on day 7. On days 10 and 13, test peptides (620 μg in 50 μL PBS) were injected into the tumor areas of 5 mice. Tumor volumes (1×w^2) were determined using calipers. No weight changes were observed. Established tumors in control mice were injected with test peptides and tumor tissues were excised and sectioned after 3 days. Tissues were fixed (10% buffered formalin), then rapidly paraffin-embedded. Apoptosis was detected by the TUNEL assay.

Bcl-2 [4] = target: T1, Bcl-2; test: Bcl-2 conformational change, anti-Bcl-2/BH3 antibody staining of HEK293T cells transfected with Bcl-2; assay type: cell-based; parameters: expressed in transfected cells; host or cells: HEK293T
Procedure: Such a Bcl-2 conformation is recognized by an anti-Bcl-2 antibody raised against the Bcl-2 BH3 domain. To determine whether NuBCP-9 induced a Bcl-2 conformational change, flow cytometric assays were conducted which HEK293T cells transfected with Bcl-2 were exposed to NuBCPs and subsequently stained with the anti-Bcl-2/BH3 antibody.
Target sequence in this assay (P10415 whole entry): as the sequence (P10415 whole entry, species assumed) above

Bcl-2 [5] = target: T1, Bcl-2; test: Competition assay of Nur77/ΔDBD binding with Bcl-2; parameters: expressed in transfected cells; host or cells: HEK293T
Procedure: Nur77/Bcl-2 interaction assays—Reporter gene assays using NurRE-tk-CAT in CV-1 cells, and GST pull-down assay were described previously (Li, et al. 2000 Science 289:1159-1164). For the mammalian two-hybrid assays, CV-1 cells were co-transfected with pcDNA-Gal4TAD-Nur77 or pcDNA-Gal4TAD-Nur77/ΔDBD and pcDNA-Gal4 DBD-Bcl-2/ΔTM along with a luciferase reporter gene driven by four copies of the Gal-4-binding site. The cells were harvested and reporter gene activity was measured. For Co-IP assays, HEK293T cells were transiently transfected with various expression plasmids using a modified calcium phosphate precipitation method (Wu et al, 1997) in the presence of caspase inhibitors (zVAD-fmk) to prevent degradation of Nur77 protein due to apoptosis. Cells were suspended in lysis buffer (50 mM Tris-HCl, PH7.4; 150 mM NaCl; 20 mM EDTA; 1% NP-40; 1 mM PMSF; 50 μg/ml Leupeptin; […] Aprotinin; 0.1 mM Na3VO4; and 1 mM DTT). Cells extracts were cleared by incubation with the Protein A/G plus Agarose beads (Santa Cruz) and then incubated with appropriate antibody and 30 μl of Protein A or G plus Agarose beads overnight at 4° C. […] Immunoreactive products were detected by chemiluminescence with an enhanced chemiluminescence system (ECL) (Amersham).
Target sequence in this assay (P10415 whole entry): as the sequence (P10415 whole entry, species assumed) above

breast cancer = test: Treatment of a patient diagnosed with breast cancer; assay type: in vivo; settings: intravenous dose at regular intervals over six weeks
From the text: A patient diagnosed with breast cancer is selected for treatment with the D-NuBCP-9-r8 peptide. The patient is given a therapeutically effective intravenous dose of the peptide at regular intervals over a six week period. Following the end of the treatment period it is observed that the breast cancer has regressed.

H460 lung cancer cells [6] = test: Apoptosis in H460 lung cancer cells; assay type: cell-based; settings: H460 cells; peptides conjugated with CPP, 10 μM

precipitation of endogenous Bcl-2 by anti-Bcl-2/BH3 antibody (Bcl-2 [2]): precipitated
Bcl-2 immunofluorescence by anti-Bcl-2/BH3 antibody (Bcl-2 [4]; flow cytometry): strong Bcl-2 immunofluorescence
Bcl-2 staining by anti-Bcl-2/BH3 antibody (Bcl-2 [4]; fluorescence microscopy): strongly stained
binding of Nur77/ΔDBD with Bcl-2 in presence of peptide (Bcl-2 [5]): abrogated
Substance: acetyl------------fsrslhsllGXrrrrrrrr-amide (Ac-[dF][dS][dR][dS][dL][dH][dS][dL][dL]G[Ahx][dR][dR][dR][dR][dR][dR][dR][dR]-NH2; SMILES CC(=O)N[C@H](Cc1ccccc1)C(=O)N[C@H](CO)C(=O)N[C@H](CCCNC(=N)N)C(=O)N[C@H](CO)C(=O)N[C@H](CC(C)C)C(=O)N[C@H](Cc1c[nH]cn1)C(=O)N[C@H](CO)C(=O)N[C@H](CC(C)C)C(=O)N[C@H](CC(C)C)C(=O)NCC(=O)NCCCCCC(=O)N[C@H](CCCNC(=N)N)C(=O)N[C@H](CCCNC(=N)N)C(=O)N[C@H](CCCNC(=N)N)C(=O)N[C@H](CCCNC(=N)N)C(=O)N[C@H](CCCNC(=N)N)C(=O)N[C@H](CCCNC(=N)N)C(=O)N[C@H](CCCNC(=N)N)C(=O)N[C@H](CCCNC(=N)N)C(N)=O) [D-NuBCP-9-r8]
apoptotic function after Bcl-2 antisense oligonucleotides (H460 lung cancer cells [1]; Bcl-2 antisense oligonucleotides): attenuated
apoptotic effect after transfection of Bcl-2 siRNA (H460 lung cancer cells [1]; H460 cells, Bcl-2 siRNA vs control GFP siRNA): inhibited
growth of tumors ([3]; SCID mice, 620 μg injected into tumor areas on days 10 and 13, vs control NuBCP-9/AA-r8): dramatically suppressed
apoptosis of tumor cells in vivo ([3]; TUNEL assay): potently induced
breast cancer outcome after treatment (breast cancer): regressed
apoptotic effect (H460 lung cancer cells [6]): retained and even slightly enhanced
